Measured values as given in PubChem BioAssay AID248 (DTP/NCI, 2004).
Values joined by “and” are separate entries in the source; they are usually repeats but may differ in a detail not shown here. Equal entries are not always repeated. Inconclusive results and toxic doses are left out. Rule as the data show it: active = T/C of 150% or more; inactive = T/C below 125%. Square brackets hold non-standard residues; d marks the D form. Peptide text beside a SMILES is read from it. * marks the point of attachment. ξ: configuration not given here. ξV = CC(C)C(N)C(=O)O; ClAc = O=C(CCl)*

Tested on: L1210 leukemia ip in BDF1 mice, survival T/C
Assay: NCI In Vivo Anticancer Drug Screen. Data for tumor model L1210 Leukemia (intraperitoneal) in B6D2F1 (BDF1) mice
Details: higher = longer survival
Summary of the method: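 Tumor cells were implanted, animals were treated, and survival was followed. The result divides the treated measurement by the vehicle-control measurement.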

[1] = endpoint: mean survival time, dose: 12.5 mg/kg/injection, schedule: Q01DX009 (ip), vehicle: saline with Tween-80
[2] = endpoint: mean survival time, dose: 25.0 mg/kg/injection, schedule: Q01DX009 (ip), vehicle: saline with Tween-80
[3] = endpoint: mean survival time, dose: 50.0 mg/kg/injection, schedule: Q01DX009 (ip), vehicle: saline with Tween-80
[4] = endpoint: mean survival time, dose: 100.0 mg/kg/injection, schedule: Q04DX003 (ip), vehicle: saline with Tween-80
[5] = endpoint: mean survival time, dose: 200.0 mg/kg/injection, schedule: Q04DX003 (ip), vehicle: saline with Tween-80
[6] = endpoint: mean survival time, dose: 50.0 mg/kg/injection, schedule: Q01DX009 (ip), vehicle: Klucel (hydroxypropylcellulose) (HPC)
[7] = endpoint: mean survival time, dose: 100.0 mg/kg/injection, schedule: Q01DX009 (ip), vehicle: Klucel (hydroxypropylcellulose) (HPC)
[8] = endpoint: mean survival time, dose: 200.0 mg/kg/injection, schedule: Q01DX009 (ip), vehicle: Klucel (hydroxypropylcellulose) (HPC)
[9] = endpoint: mean survival time, dose: 400.0 mg/kg/injection, schedule: Q01DX009 (ip), vehicle: Klucel (hydroxypropylcellulose) (HPC)
[10] = endpoint: mean survival time, dose: 100.0 mg/kg/injection, schedule: Q04DX003 (ip), vehicle: saline
[11] = endpoint: mean survival time, dose: 200.0 mg/kg/injection, schedule: Q04DX003 (ip), vehicle: saline
[12] = endpoint: mean survival time, dose: 100.0 mg/kg/injection, schedule: Q04DX003 (ip), vehicle: Klucel (hydroxypropylcellulose) (HPC)
[13] = endpoint: mean survival time, dose: 200.0 mg/kg/injection, schedule: Q04DX003 (ip), vehicle: Klucel (hydroxypropylcellulose) (HPC)
[14] = endpoint: mean survival time, dose: 400.0 mg/kg/injection, schedule: Q04DX003 (ip), vehicle: Klucel (hydroxypropylcellulose) (HPC)

Measured: T/C

N#CC(C#N)C1c2ccccc2Nc2ccccc21
inactive: [1] 89 % of control | [2] 89 % of control | [3] 98 % of control and 89 % of control

CCCCCCCCCCC(N)P(=O)(O)O (stereo not given)
inactive: [1] 103 % of control | [2] 101 % of control | [3] 105 % of control | endpoint: mean survival time, dose: 300.0 mg/kg/injection, schedule: Q01DX001 (ip), vehicle: saline 98 % of control

Cc1ccc(C(=O)Nc2c(N)ncnc2N)cc1[N+](=O)[O-]
inactive: endpoint: mean survival time, dose: 75.0 mg/kg/injection, schedule: Q01DX001 (ip), vehicle: saline with Tween-80 101 % of control | endpoint: mean survival time, dose: 150.0 mg/kg/injection, schedule: Q01DX001 (ip), vehicle: saline with Tween-80 98 % of control | endpoint: mean survival time, dose: 300.0 mg/kg/injection, schedule: Q01DX001 (ip), vehicle: saline with Tween-80 102 % of control

CC(C)C(NC(=O)CNC(=O)CCl)C(=O)O (stereo not given) (ClAc-Gly-[ξV]-OH)
inactive: [4] 101 % of control | [5] 101 % of control

CCCCCCCCCCCCCCCCCCNC1=C(Cl)C(=O)C(NCCCCCCCCCCCCCCCCCC)=C(Cl)C1=O
inactive: endpoint: mean survival time, dose: 50.0 mg/kg/injection, schedule: Q01DX001 (ip), vehicle: carboxymethylcellulose (CMC) 100 % of control

Cc1ccc(S(=O)(=O)N(c2cc([N+](=O)[O-])ccc2Br)S(=O)(=O)c2ccc(C)cc2)cc1
inactive: endpoint: mean survival time, dose: 100.0 mg/kg/injection, schedule: Q04DX002 (ip), vehicle: saline with Tween-80 88 % of control | endpoint: mean survival time, dose: 200.0 mg/kg/injection, schedule: Q04DX002 (ip), vehicle: saline with Tween-80 98 % of control | endpoint: mean survival time, dose: 400.0 mg/kg/injection, schedule: Q04DX002 (ip), vehicle: saline with Tween-80 88 % of control

CN1C(=S)c2ccccc2S1(=O)=O
inactive: [4] 106 % of control | [5] 94 % of control | endpoint: mean survival time, dose: 400.0 mg/kg/injection, schedule: Q04DX003 (ip), vehicle: saline with Tween-80 92 % of control

NC(=O)C=C1c2ccccc2-c2ccccc21
inactive: endpoint: mean survival time, dose: 25.0 mg/kg/injection, schedule: Q01DX009 (ip), vehicle: Klucel (hydroxypropylcellulose) (HPC) 97 % of control | [6] 94 % of control | [7] 96 % of control | [8] 91 % of control | [9] 89 % of control

O=C(NCCCCC(NC(=O)OCc1ccccc1)C(=O)NCCCNCCCCNCCCNC(=O)C(CCCCNC(=O)OCc1ccccc1)NC(=O)OCc1ccccc1)OCc1ccccc1 (stereo not given)
inactive: endpoint: mean survival time, dose: 2.5 mg/kg/injection, schedule: Q01DX Z (ip), vehicle: saline 93 % of control | endpoint: mean survival time, dose: 5.0 mg/kg/injection, schedule: Q01DX Z (ip), vehicle: saline 96 % of control | endpoint: mean survival time, dose: 10.0 mg/kg/injection, schedule: Q01DX Z (ip), vehicle: saline 98 % of control | endpoint: mean survival time, dose: 20.0 mg/kg/injection, schedule: Q01DX Z (ip), vehicle: saline 96 % of control

CCOC(=O)Oc1ccc(Br)cc1Br
inactive: endpoint: mean survival time, dose: 100.0 mg/kg/injection, schedule: Q01DX001 (ip), vehicle: saline 104 % of control | endpoint: mean survival time, dose: 100.0 mg/kg/injection, schedule: Q01DX009 (ip), vehicle: carboxymethylcellulose (CMC) 93 % of control and 96 % of control | endpoint: mean survival time, dose: 100.0 mg/kg/injection, schedule: Q04DX002 (ip), vehicle: saline 99 % of control | [10] 103 % of control | endpoint: mean survival time, dose: 200.0 mg/kg/injection, schedule: Q01DX001 (ip), vehicle: saline 102 % of control | endpoint: mean survival time, dose: 200.0 mg/kg/injection, schedule: Q01DX009 (ip), vehicle: carboxymethylcellulose (CMC) 94 % of control and 97 % of control | endpoint: mean survival time, dose: 200.0 mg/kg/injection, schedule: Q04DX002 (ip), vehicle: saline 92 % of control | [11] 95 % of control | endpoint: mean survival time, dose: 400.0 mg/kg/injection, schedule: Q01DX001 (ip), vehicle: saline 104 % of control | endpoint: mean survival time, dose: 400.0 mg/kg/injection, schedule: Q01DX009 (ip), vehicle: carboxymethylcellulose (CMC) 92 % of control and 93 % of control | endpoint: mean survival time, dose: 400.0 mg/kg/injection, schedule: Q04DX002 (ip), vehicle: saline 104 % of control | endpoint: mean survival time, dose: 400.0 mg/kg/injection, schedule: Q04DX003 (ip), vehicle: saline 102 % of control

CC(=O)NC(CCc1ccc(Cl)c(Cl)c1)c1cccc(O)c(=O)c1 (stereo not given)
inactive: endpoint: median survival time, dose: 50.0 mg/kg/injection, schedule: Q01DX009 (ip), vehicle: Klucel (hydroxypropylcellulose) (HPC) 118 % of control | endpoint: median survival time, dose: 100.0 mg/kg/injection, schedule: Q01DX009 (ip), vehicle: Klucel (hydroxypropylcellulose) (HPC) 118 % of control

CCCC1(CCC)CN(C)C1=O
inactive: endpoint: mean survival time, dose: 12.5 mg/kg/injection, schedule: Q01DX009 (ip), vehicle: saline 97 % of control | endpoint: mean survival time, dose: 25.0 mg/kg/injection, schedule: Q01DX009 (ip), vehicle: saline 88 % of control | endpoint: mean survival time, dose: 25.0 mg/kg/injection, schedule: Q04DX003 (ip), vehicle: saline 104 % of control | endpoint: mean survival time, dose: 50.0 mg/kg/injection, schedule: Q01DX009 (ip), vehicle: saline 100 % of control | endpoint: mean survival time, dose: 50.0 mg/kg/injection, schedule: Q04DX003 (ip), vehicle: saline 98 % of control | endpoint: mean survival time, dose: 100.0 mg/kg/injection, schedule: Q01DX009 (ip), vehicle: saline 102 % of control | [10] 98 % of control | endpoint: mean survival time, dose: 200.0 mg/kg/injection, schedule: Q01DX009 (ip), vehicle: saline 102 % of control | [11] 98 % of control

Cc1cc(Cl)ccc1NC(=O)c1ccccc1C(=O)O
inactive: [7] 96 % of control | [12] 98 % of control | [8] 93 % of control | [13] 91 % of control | [9] 102 % of control | [14] 93 % of control

CN(Cc1ccccc1)N=Nc1ccccc1
inactive: endpoint: mean survival time, dose: 50.0 mg/kg/injection, schedule: Q04DX002 (ip), vehicle: Klucel (hydroxypropylcellulose) (HPC) 103 % of control | endpoint: mean survival time, dose: 100.0 mg/kg/injection, schedule: Q04DX002 (ip), vehicle: Klucel (hydroxypropylcellulose) (HPC) 95 % of control | endpoint: mean survival time, dose: 200.0 mg/kg/injection, schedule: Q04DX002 (ip), vehicle: Klucel (hydroxypropylcellulose) (HPC) 116 % of control

CCOC(=O)c1cnc(SC)nc1Nc1ccccc1F
inactive: [4] 89 % of control | [5] 92 % of control

O=C1CCC(OC(=O)c2ccccc2)CC1
inactive: [7] 97 % of control | [12] 101 % of control | [8] 95 % of control | [13] 101 % of control | [9] 100 % of control | [14] 90 % of control

CCCCCCCCCCCCCCCCS(=O)CCCCCCCCCCCCCCCC
inactive: [6] 88 % of control | [7] 92 % of control

Cc1nc(N)cc(=O)[nH]1
inactive: endpoint: mean survival time, dose: 100.0 mg/kg/injection, schedule: Q01DX009 (ip), vehicle: water 112 % of control | endpoint: mean survival time, dose: 100.0 mg/kg/injection, schedule: Q04DX003 (ip), vehicle: water 97 % of control | endpoint: mean survival time, dose: 200.0 mg/kg/injection, schedule: Q01DX009 (ip), vehicle: water 104 % of control | endpoint: mean survival time, dose: 200.0 mg/kg/injection, schedule: Q04DX003 (ip), vehicle: water 97 % of control | endpoint: mean survival time, dose: 400.0 mg/kg/injection, schedule: Q04DX003 (ip), vehicle: water 97 % of control
